Patent US6524527B2 (Natural Corporation, priority 1998, dated 2003)

Experiments:
Type in all cases: physicochemical
[1] = Oxidation of CLA methyl ester in open test tube, GLC composition; conditions: for relative content, Day 0: CLA methyl ester sample before oxidation; for relative content, Day 115: open test tube, 115 days, room temperature, free access to air
Method: This example describes the oxidation of CLA exposed to open air. A small sample of methyl ester was prepared and stored in an open test tube for 115 days at room temperature with free access to air. […] A chromatogram of the same sample was also run on a polar column. The results indicated the presence of a large number of short chain polar components (i.e., breakdown products).

[2] = Peroxide value (PV), colorimetric ferric thiocyanate method; conditions: after storage in open glass
Source text: The present invention is not limited to any one mechanism. Indeed, an understanding of the mechanism of the invention is not necessary to produce the composition or perform the methods of the present invention.

[3] = Oil stability index (OSI) of CLA triacylglyceride with added antioxidants; conditions: antioxidant added to CLA triacylglyceride, 0-0.1 %
Method: In some embodiments, oxidation of CLA is prevented by the addition of metal oxidant chelators or peroxide scavengers to the finished product. In some embodiments, the amount of oxidation is measured by the oil stability index (OSI). The OSI (See e.g., AOCS official method Cd 12b-92) is a measurement of an oil's resistance to oxidation. It is defined mathematically as the time of maximum change of the rate of oxidation. This rate can be determined mathematically. Experimentally, the OSI is calculated by measuring the change in conductivity of deionized water is which volatile organic acids (oxidation products) are dissolved. When performing OSI measurements, it is important to avoid contamination by trace amounts of metals, which can accelerate the oxidation process. This is generally accomplished by careful washing of all glassware used with a cleaning solution lacking chromate or surfactants. Water must be deionized and all solvents must be of a highly purified grade. […]
The oxygen stability index (OSI) was measured using a method known in the art (AOCS official method Cd 12b-92 using an OSI apparatus from Omnion Instruments). […] The conductivity of the water is continually monitored over time. The OSI (the point of maximum change of the rate of oxidation) is determined mathematically. […]

| relative content, Day 0 [1] | relative content, Day 115 [1] | peroxide values (PV) [2] | increase of the OSI value by addition of antioxidant [3] | SMILES |
| --- | --- | --- | --- | --- |
| 0.13 | 0.10 |  |  | CCCCCC/C=C\CCCCCCCCCC(=O)O [C18:1, c11] |
| 0.06 | 0.03 |  |  | CCCCC/C=C\C/C=C\CCCCCCCC(=O)O [C18:2, c9, c12, 9,12-linoleic acid] |
| 0.09 | 0 |  |  | CCCCC/C=C\C=C/CCCCCCCCC(=O)O [CLA, c10, c12, c10,c12 octadecadienoic acid] |
| 0.11 | 0 |  |  | CCCCCC/C=C\C=C/CCCCCCCC(=O)O [CLA, c9, c11] |
|  |  |  | did not significantly increase | Cc1c(C)c2c(c(C)c1O)CC[C@@](C)(CCC[C@H](C)CCC[C@H](C)CCCC(C)C)O2 [alpha-tocopherol] |

More lines, now with the values behind:

| SMILES | relative content, Day 0 [1] | relative content, Day 115 [1] | peroxide values (PV) [2] | increase of the OSI value by addition of antioxidant [3] |
| --- | --- | --- | --- | --- |
| CCCCCC/C=C/C=C\CCCCCCCC(=O)O [CLA, c9, t11, c9,t11-octadecadienoic] | 7.68 | 0 |  |  |
| CCCCC/C=C\C/C=C\CCCCCCCC(=O)O [linoleic acid] |  |  | 370 |  |
| CCCCCCCC/C=C/CCCCCCCC(=O)O [C18:1, t9] | 0 | 0.33 |  |  |
| CCCCCCCC/C=C\CCCCCCCC(=O)O [C18:1, c9, oleic acid] | 4.14 | 3.19 |  |  |
| CCCCC/C=C\C=C\CCCCCCCCC(=O)O [CLA, t10, c12, t10,c12-octadecadienoic acid] | 7.63 | 0 |  |  |
| CCCCCCCCCCCCCCCC(=O)O [C 16:0, palmitic acid] | 1.36 | 1027 |  |  |
